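Test compounds were applied to cells in 96-well plates for 48 hours at 5 doses. GI50 = concentration required for 50% inhibition of growth.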 The source made the active and inactive calls. No stated cut-off is given here; in the data, active = GI50 up to about 1.1 µM and inactive = higher.

Among the test systems are OVCAR-4; SK-OV-3; T47D; NCI-H460; TK-10; KM12; LOX IMVI; OVCAR-5; NCI/ADR-RES; EKVX; CAKI-1; SNB-75; NCI-H226; M14; IGROV-1; BT-549; RPMI-8226; CCRF-CEM; MOLT-4.
Test in all cases: NCI tumour cell line growth inhibition, 48 h

For `CC(O)(/C=C/c1ccccc1)P(=O)(O)c1ccccc1` (centres undefined), the GI50 in the assay on OVCAR-4, in the assay on SK-OV-3, with T47D, with NCI-H460, with TK-10 and in the assay on KM12 was > 100 µM (inactive) each time. Also, the GI50 in the assay on LOX IMVI was > 100 µM (inactive); with OVCAR-5 it was > 100 µM (inactive); in the assay with NCI/ADR-RES, > 100 µM (inactive); with EKVX, > 100 µM (inactive); in the assay on CAKI-1, > 100 µM (inactive); in the assay on SNB-75, 37.9 µM (inactive). Also, the GI50 in the assay with NCI-H226, with M14 and in the assay with IGROV-1 was > 100 µM (inactive) in each case.
For `Cc1ccc(-c2c(C#N)c(-c3ccc(N(C)C)cc3)c(C#N)c(=O)n2NS(=O)(=O)c2ccccc2)cc1`, the GI50 with OVCAR-4 is 19.9 µM (inactive); in the assay with SK-OV-3, 62.1 µM (inactive); in the assay on NCI-H460 it was 18.1 µM (inactive); in the assay on TK-10 it was 92.3 µM (inactive); in the assay with BT-549, 37.2 µM (inactive); with KM12, 31.3 µM (inactive). Also, the GI50 with LOX IMVI was 28 µM (inactive); in the assay with RPMI-8226, 8.67 µM (inactive); in the assay with OVCAR-5 it was > 100 µM (inactive); in the assay with NCI/ADR-RES it was 39.4 µM (inactive); with EKVX, 96.6 µM (inactive); in the assay on CAKI-1, 31.7 µM (inactive). Moreover, the GI50 with SNB-75 is 37 µM (inactive); in the assay on NCI-H226 it was > 100 µM (inactive); in the assay with M14, 25 µM (inactive); with IGROV-1, 63.2 µM (inactive); in the assay with CCRF-CEM, 29.5 µM (inactive); with MOLT-4 it was 16.4 µM (inactive).
As to `c1ccc(Cc2cc(-c3ccccc3)[nH]n2)cc1`, the GI50 in the assay on SK-OV-3 is 32.4 µM (inactive); in the assay on T47D it was 33.3 µM (inactive); in the assay with NCI-H460, 17 µM (inactive); in the assay on TK-10, 17.4 µM (inactive); in the assay with KM12 it was 14 µM (inactive); in the assay with LOX IMVI it was 15.1 µM (inactive). The GI50 is 20.6 µM (inactive) with OVCAR-5; 21.8 µM (inactive) in the assay with NCI/ADR-RES; 10.6 µM (inactive) with EKVX; 11.5 µM (inactive) in the assay with CAKI-1; < 0.01 µM (active) with SNB-75; 12.5 µM (inactive) in the assay on NCI-H226. The GI50 is 28.5 µM (inactive) with M14, 18.1 µM (inactive) with IGROV-1, 10.9 µM (inactive) in the assay with CCRF-CEM and 10.4 µM (inactive) in the assay on MOLT-4.
Regarding `COc1ccc(-c2nc3ncccn3c2-c2ccc([S+](C)[O-])cc2)cc1` (centres undefined), the GI50 with OVCAR-4 was > 100 µM (inactive); in the assay on SK-OV-3, 45.3 µM (inactive); in the assay on NCI-H460, > 100 µM (inactive); with BT-549 it was > 100 µM (inactive); in the assay on KM12, 80.9 µM (inactive); in the assay with LOX IMVI, > 100 µM (inactive). For the same compound, the GI50 was > 100 µM (inactive) with RPMI-8226; > 100 µM (inactive) in the assay on OVCAR-5; > 100 µM (inactive) in the assay with NCI/ADR-RES; 14.2 µM (inactive) in the assay with CAKI-1; > 100 µM (inactive) in the assay with SNB-75; > 100 µM (inactive) in the assay with M14. Also, the GI50 with IGROV-1, in the assay with CCRF-CEM and in the assay with MOLT-4 was > 100 µM (inactive) throughout.
Turning to `COC1=CC(=O)C2C(C1=O)[C@@H]1c3ccccc3OC[C@H]21` (some centres undefined), the GI50 in the assay with OVCAR-4, with SK-OV-3, with NCI-H460, in the assay on TK-10, in the assay with KM12 and in the assay on LOX IMVI was > 100 µM (inactive) throughout. In addition, the GI50 in the assay with RPMI-8226, with OVCAR-5, in the assay on EKVX, in the assay with CAKI-1, with SNB-75 and in the assay on NCI-H226 was > 100 µM (inactive) each time. The GI50 with M14, in the assay with CCRF-CEM and in the assay with MOLT-4 was > 100 µM (inactive) each time.
Consider `CC/C(Cl)=N\OC(=O)Nc1ccc(F)c([N+](=O)[O-])c1`, for which the GI50 in the assay on OVCAR-4 was 4.99 µM (inactive); with SK-OV-3 it was 19.1 µM (inactive); in the assay with NCI-H460 it was 3.73 µM (inactive); with TK-10 it was 11.6 µM (inactive); with BT-549, 16.7 µM (inactive); in the assay with KM12, 17.5 µM (inactive). Moreover, the GI50 with LOX IMVI was 15.6 µM (inactive); in the assay with RPMI-8226, 2.94 µM (inactive); in the assay with OVCAR-5, 22.7 µM (inactive); with NCI/ADR-RES, 26.9 µM (inactive); in the assay with EKVX, 19.2 µM (inactive); with CAKI-1, 2.85 µM (inactive). Further, the GI50 in the assay with SNB-75 is 18.2 µM (inactive); in the assay on NCI-H226, 33.3 µM (inactive); in the assay with M14 it was 10.3 µM (inactive); in the assay on IGROV-1, 17.9 µM (inactive); with CCRF-CEM it was 2.59 µM (inactive); in the assay with MOLT-4 it was 2.72 µM (inactive).
For the compound `COC(=O)C1=C2SCc3ccc(cc3)CSC3=C(C(=O)OC)SC(=C(S2)S1)S3`, the GI50 with OVCAR-4 was 64.6 µM (inactive); in the assay on SK-OV-3, > 100 µM (inactive); with T47D, > 100 µM (inactive); in the assay with NCI-H460, > 100 µM (inactive); in the assay on TK-10, > 100 µM (inactive); in the assay with KM12, > 100 µM (inactive). For the same compound, the GI50 in the assay on RPMI-8226 was 33 µM (inactive); in the assay on CAKI-1 it was > 100 µM (inactive); in the assay with SNB-75, > 100 µM (inactive); with NCI-H226, > 100 µM (inactive); in the assay with M14, > 100 µM (inactive); with MOLT-4, > 100 µM (inactive).
Take `CC(=O)/C=C/C=C(\C)CC/C=C(\C)CC(C)C`: the GI50 with OVCAR-4 was 42.1 µM (inactive); with SK-OV-3, 55.7 µM (inactive); in the assay with T47D it was 14.6 µM (inactive); in the assay on NCI-H460, 29.9 µM (inactive); in the assay with TK-10, > 100 µM (inactive); in the assay on KM12 it was 27.7 µM (inactive). The GI50 with LOX IMVI was 18.3 µM (inactive); in the assay on RPMI-8226 it was 17.1 µM (inactive); in the assay on OVCAR-5 it was 61.2 µM (inactive); in the assay on EKVX, 37.3 µM (inactive); in the assay on CAKI-1, 40.8 µM (inactive); in the assay on SNB-75, 35.2 µM (inactive). Moreover, the GI50 in the assay with NCI-H226 was 26.9 µM (inactive); in the assay on M14, 52.2 µM (inactive); with IGROV-1, 28.9 µM (inactive); in the assay with CCRF-CEM, 13.5 µM (inactive); in the assay with MOLT-4, 18.1 µM (inactive).
As for `CN(C)Cc1cc(C(=O)/C=C/c2ccc(Cl)c(Cl)c2)cc(CN(C)C)c1O`, the GI50 is 4.61 µM (inactive) in the assay with OVCAR-4; 4.41 µM (inactive) in the assay on T47D; 2.12 µM (inactive) in the assay on NCI-H460; 1.82 µM (inactive) in the assay with KM12; 0.716 µM (active) in the assay with LOX IMVI; 1.99 µM (inactive) with RPMI-8226. Further, the GI50 with OVCAR-5 was 8.83 µM (inactive); in the assay on NCI/ADR-RES, 2.24 µM (inactive); in the assay on EKVX, 8.36 µM (inactive); in the assay on CAKI-1 it was 1.13 µM (inactive); with SNB-75, 2.07 µM (inactive); in the assay with NCI-H226, 3.77 µM (inactive). Further, the GI50 in the assay on M14 is 2.02 µM (inactive); in the assay with IGROV-1, 3.37 µM (inactive); in the assay with CCRF-CEM, 1.89 µM (inactive); in the assay on MOLT-4, 3.18 µM (inactive).
`COc1cc2c(cc1OC)-c1c(oc3cc(OC4OC(CO)C(O)C(O)C4O)c(OC)cc3c1=O)C(O)O2` (centres undefined): the GI50 in the assay with OVCAR-4, in the assay on SK-OV-3, with NCI-H460, in the assay on TK-10, in the assay on BT-549 and in the assay on KM12 was > 100 µM (inactive) in each case. Also, the GI50 in the assay with LOX IMVI, in the assay with RPMI-8226, in the assay with OVCAR-5, in the assay on NCI/ADR-RES, in the assay on EKVX and in the assay with CAKI-1 was > 100 µM (inactive) in each case. The GI50 in the assay on SNB-75, with NCI-H226, with M14, in the assay on IGROV-1 and with CCRF-CEM was > 100 µM (inactive) in each case.
Consider `Cc1cccc(C)c1N1C(=O)C2c3[nH]c4ccccc4c3C3CCC(C(C)(C)C)CC3C2C1=O` (centres undefined), for which the GI50 in the assay with SK-OV-3 was 54.5 µM (inactive); in the assay with NCI-H460, 5.73 µM (inactive); in the assay with TK-10, 17.6 µM (inactive); in the assay on BT-549, 20 µM (inactive); in the assay with LOX IMVI, 10.1 µM (inactive); with RPMI-8226, 19.3 µM (inactive). In addition, the GI50 with OVCAR-5 is 24.6 µM (inactive); with NCI/ADR-RES, 13.8 µM (inactive); in the assay on EKVX, 7.16 µM (inactive); with CAKI-1 it was 12.3 µM (inactive); in the assay with NCI-H226, 18.4 µM (inactive); with M14 it was 13.6 µM (inactive). Also, the GI50 is 15 µM (inactive) in the assay on IGROV-1, 12.6 µM (inactive) in the assay on CCRF-CEM and 24.6 µM (inactive) in the assay with MOLT-4.
Take `O=C1/C(=C/c2cccs2)NC(=S)N1CN1CCCCC1`: the GI50 in the assay with OVCAR-4 is 20.7 µM (inactive); in the assay with SK-OV-3 it was > 100 µM (inactive); with TK-10, > 100 µM (inactive); in the assay on KM12, > 100 µM (inactive); with LOX IMVI, 33 µM (inactive); in the assay on RPMI-8226, 28.9 µM (inactive). For the same compound, the GI50 was > 100 µM (inactive) in the assay on OVCAR-5; > 100 µM (inactive) in the assay with NCI/ADR-RES; 55 µM (inactive) in the assay on EKVX; > 100 µM (inactive) with SNB-75; 78.2 µM (inactive) with NCI-H226; 61.7 µM (inactive) with M14. Moreover, the GI50 is 67.1 µM (inactive) with IGROV-1, 60.5 µM (inactive) in the assay with CCRF-CEM and 55.5 µM (inactive) in the assay on MOLT-4.

(Values after ChEMBL document CHEMBL1201862, “PubChem BioAssay data set” (2004).)
